Reference: article PMC8669712, “G Protein-Coupled Receptor GPR35 Suppresses Lipid Accumulation in Hepatocytes” (ACS Pharmacology & Translational Science, 2021)

Experiments:
human GPR35a = human GPR35a (Homo sapiens, UniProt Q9HC97); assay: β-arrestin-based interaction assay, agonist potency at human GPR35a; type: cell-based
[1] = system: GPR35 genome-edited HepG2 clones; assay: Label-free cellular impedance assay in GPR35 genome-edited HepG2 clones 19 and 27; type: cell-based, human; conditions: 1 × 10^–5 M
Text: Expression of full-length mRNA from the GPR35 gene was eliminated using a dual synthetic gRNA/RNP approach[43] with one guide cutting the intron and one in the exon region to generate a nonfunctional GPR35 protein. The gRNAs were designed with the CRISPR Finder (Welcome Sanger Institute). HepG2 cells were transfected with the Neon Transfection System from Thermo Fisher Scientific (Waltham, MA), according to the manufacturer’s instructions. Briefly, CrRNA and tracrRNA were annealed to gRNA at 95 °C for 5 min. Next, cells were transfected with gRNA, Cas9, and the electroporation enhancer, according to the manufacturer’s instructions. All crRNAs, tracrRNA, SpCas9 nuclease, and the electroporation enhancer were purchased from Integrated DNA Technologies (Coralville, IA). Transfected cells were plated and analyzed for editing efficiency 24–48 h after electroporation. Single-cell clones were generated by single-cell FACS sorting. Clones were expanded and to access editing efficiency, genomic DNA from cell clones was extracted and subjected to PCR to confirm the genome deletion. To further quantify and capture the genomic DNA deletion, PCR primers listed in Table S1 were designed to amplify the genomic DNA surrounding the target site. The PCR primers were linked to the sequences of the Illumina Nextera adapters. The amplified PCR products were subjected to paired-end sequencing using NextSeq500 from Illumina using paired-end chemistry with a 150-bp read length. In addition, mRNA from KO clones was isolated and subjected to RT-PCR. To further confirm the abrogation of GPR35 activation in CRISPR KO clones, KO cells were seeded onto xCELLigence E plates (2 × 10^4 cells/well) for 24 h at 37 °C prior to the treatment of GPR35 agonists. The impedance was recorded using xCELLigence RTCA. […]
HepG2 cells were seeded onto xCELLigence E plates (2 × 10^4 cells/well) and incubated for 24 h at 37 °C. […] After the addition of GPR35 agonist or vehicle control, the impedance (represented as “cell index”) was recorded every 30 s over a 2 h period using xCELLigence RTCA (Agilent). […]

[2] = system: GPR35 knock-out clones of HepG2 cells; assay: Oil Red O lipid accumulation in GPR35 knock-out clones of HepG2 cells; type: cell-based, human; conditions: lodoxamide 1 × 10^–6 M or 1 × 10^–5 M
Experimental: Human hepatocellular carcinoma HepG2 cells were grown in Minimum Essential Medium (MEM) supplemented with 10% fetal bovine serum (FBS), 2 mM L-glutamine, 1× non-essential amino acid, 1 mM sodium pyruvate, and 1× penicillin/streptomycin. Materials for cell culture were all from Sigma-Aldrich (St. Louis, MO) or Thermo Fisher Scientific (Waltham, MA). Cells were incubated in a humidified CO2 incubator at 37 °C. Experiments were performed when cell confluence reached 80%. Cells were seeded onto a 12-well plate (1 × 10^5 cells/well) for 24 h prior to drug treatment. […] Expression of full-length mRNA from the GPR35 gene was eliminated using a dual synthetic gRNA/RNP approach[43] with one guide cutting the intron and one in the exon region to generate a nonfunctional GPR35 protein. The gRNAs were designed with the CRISPR Finder (Welcome Sanger Institute). […] Transfected cells were plated and analyzed for editing efficiency 24-48 h after electroporation. […] To further quantify and capture the genomic DNA deletion, PCR primers listed in Table S1 were designed to amplify the genomic DNA surrounding the target site. […] The amplified PCR products were subjected to paired-end sequencing using NextSeq500 from Illumina using paired-end chemistry with a 150-bp read length. […] The impedance was recorded using xCELLigence RTCA. […] Lipid accumulation was measured by Oil Red O staining.

[3] = system: clone 27 HepG2 cells transfected with human GPR35a; assay: Cellular impedance in clone 27 cells transiently transfected with human GPR35a; type: cell-based; conditions: lodoxamide 1 × 10^–8 M
Experimental: (§1) Briefly, CRISPR KO cells were transiently transfected 24 h with the human GPR35a expression vector using LipofectAMINE 3000 reagent, according to the manufacturer’s instructions. […] Alternatively, after 24 h transfection, cells were seeded onto a 12-well plate (1 × 10^5 cells/well) for 24 h at 37 °C. Then, cells were incubated with T0901317 and/or GPR35 agonists (in MEM containing 5% FBS) for 72 h. After the drug treatment, cells were stained with Oil Red O to examine the levels of lipid accumulation. Each experiment was repeated at least three times.
HepG2 cells were seeded onto xCELLigence E plates (2 × 10^4 cells/well) and incubated for 24 h at 37 °C. To evaluate GPR35 activation and its downstream G protein signaling, HepG2 cells or primary mouse hepatocytes were exposed to GPR35 antagonists or G protein inhibitors 1 h (overnight for Pertussis toxin) prior to GPR35 agonist stimulation. After the addition of GPR35 agonist or vehicle control, the impedance (represented as “cell index”) was recorded every 30 s over a 2 h period using xCELLigence RTCA (Agilent). Each experiment was repeated at least three times.

[4] = system: GPR35a-reconstituted clone 27 HepG2 cells; assay: Oil Red O lipid accumulation in GPR35a-reconstituted clone 27 cells; type: cell-based, human; conditions: clone 27, 72 h
Experimental: as §1
Lipid accumulation was measured by Oil Red O staining. A working solution of Oil Red O was prepared, as described with modification.[46] After drug treatment, cells were washed with PBS and fixed with formalin solution for 1 h at 4 °C. Then, cells were stained with Oil Red O working solution for 10 min at room temperature. After PBS washing, Oil Red O was extracted from cells using 150 μl of isopropanol and OD510 nm measured. […] These cells were then stained with Hoechst 33342 (1 μg/mL) and the fluorescence intensity of Hoechst (represents the DNA content in cells) was measured using a CLARIOstar plate reader (BMG LABTECH). Oil Red O accumulation was corrected for differences in DNA content and expressed as relative absorbency, taking the control condition (treated with vehicle only) as 1.

[5] = system: primary mouse hepatocytes; set-up: method as in Nam et al. 37; conditions: ref Nam et al. 37; read-out: EC50 to limit lipid accumulation in mouse hepatocytes; cited from earlier work

human GPR35a, sequence (Q9HC97 whole entry): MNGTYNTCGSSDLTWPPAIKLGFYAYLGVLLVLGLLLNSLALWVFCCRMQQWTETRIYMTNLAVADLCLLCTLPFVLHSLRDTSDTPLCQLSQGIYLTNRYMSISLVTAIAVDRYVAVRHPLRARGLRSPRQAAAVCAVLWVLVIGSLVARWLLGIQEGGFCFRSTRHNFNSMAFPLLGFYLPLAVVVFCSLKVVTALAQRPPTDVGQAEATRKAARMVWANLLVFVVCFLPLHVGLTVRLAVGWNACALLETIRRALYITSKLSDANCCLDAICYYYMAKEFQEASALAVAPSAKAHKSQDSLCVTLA

Question: For N#Cc1cc(NC(=O)C(=O)O)c(Cl)c(NC(=O)C(=O)O)c1 [lodoxamide, 2-[2-chloro-5-cyano-3-(oxaloamino)anilino]-2-oxoacetic acid], which “ratio (log) (H/M)” value (human GPR35a; log ratio of potency at human GPR35a over mouse GPR35) is on record?
Answer: 2.66 ± 0.05

Question: What about the EC50 (human GPR35a; β-arrestin-based interaction assay, read-out: human GPR35a, pEC50 (converted)) of the same compound?
Answer: 4.17 nM

Question: And the “impedance signal in GPR35 genome-edited clones 19 and 27” value [1]?
Answer: not in either clone 19 or 27

Question: What about the “suppression of the effect of T0901317 on lipid accumulation in GPR35 knock-out clones” value [2] of the same compound?
Answer: unable to suppress the effect of T0901317

Question: What about the “impedance signal in clone 27 cells transfected with human GPR35a” value [3] of the same compound?
Answer: stimulated signal

Question: What about the “lipid accumulation induced by T0901317 in GPR35a-reconstituted cells” value [4] of the same compound?
Answer: again able to prevent the lipid accumulation

Question: And the EC50 [5]?
Answer: 6.1 nM
